Experimental data from publication PMC8279406 (Journal of Medicinal Chemistry, 2021).

Tests used:
[1] = target: T1, human αvβ8 integrin (Homo sapiens, UniProt P06756+P26012); test: LAP(TGF-β1)-αvβ8 competitive solid-phase ELISA binding assay; settings: competitive ELISA, immobilized LAP, soluble integrin
T1 construct: purchased R&D Systems (Biotechne brand) 4135-AV
Experimental: (§1) The affinity and selectivity of the integrin peptide ligands were ascertained according to a modified method previously reported by some of us.[33],[47] The binding was determined in a competitive solid-phase binding assay using extracellular matrix proteins, soluble integrins, and pertinent integrin-specific antibodies in an enzyme-linked immunosorbent assay (ELISA).
The experimental procedure is as described for the αvβ6 assay, except for the following modifications. The plates were coated, washed, and blocked as described above. Soluble integrin αvβ8 was mixed with an equal volume of serially diluted inhibitors resulting in a final integrin concentration of 0.25 μg/mL and 0.0032–10 μM for the inhibitors. The primary and secondary antibodies are the same as in the integrin αvβ6 assay. Visualization and analysis were performed as described above. Each plate contained a linear peptide ([…]) as the internal standard.[3]

[2] = target: T2, human αvβ6 integrin (Homo sapiens, UniProt P06756+P18564); test: LAP(TGF-β1)-αvβ6 competitive solid-phase ELISA binding assay; settings: immobilized LAP, soluble integrin
T2 construct: using immobilized ECM protein and soluble integrin; purchased R&D Systems (Biotechne brand) 3817-AV
Experimental: as §1
A flat-bottom 96-well ELISA plate was coated overnight at 4 °C with 100 μL/well of 0.4 μg/mL LAP previously diluted in carbonate buffer (15 mM Na2CO3, 35 mM NaHCO3, pH 9.6). Afterward, each well was then washed three times with 200 μL of PBS-T buffer (137 mM NaCl, 2.7 mM KCl, 10 mM Na2HPO4, 2 mM KH2PO4, 0.01% Tween 20, pH 7.4) and blocked for 1 h at room temperature with 150 μL/well TSB buffer (20 mM Tris–HCl, 150 mM NaCl, 1 mM CaCl2, 1 mM MgCl2, 1 mM MnCl2, pH 7.5, 1% BSA). Then, each well was washed three times with 200 μL of PBS-T.
Equal volumes (50 μL) of the internal standard (or test compounds) were mixed with 0.5 μg/mL human integrin αvβ6 (50 μL) giving a final dilution series in TSB buffer of 0.00064–10 μM for the inhibitors and 0.25 μg/mL for integrin αvβ6. These solutions (100 μL/well) were added to the flat-bottom ELISA plate and incubated for 1 h at room temperature. The solutions were discarded from the wells, and the plate was washed three times with PBS-T buffer (3 × 200 μL). […] The solutions were discarded from the wells, and the plate was washed three times with PBS-T (3 × 200 μL). The binding assay was developed by adding 50 μL/well of the 3,3′,5,5′-tetramethylbenzidine (TMB) liquid substrate system and incubating for 1 min at room temperature. The reaction was stopped by adding 50 μL/well of 3 M H2SO4. The peroxidase product formation was detected by measuring the absorbance at […] using a plate reader (Tecan SpectraFLUOR plus, Männedorf, Switzerland). Each compound concentration was tested in duplicate, and the resulting inhibition curves were analyzed using OriginPro 7.5G software; the inflection point describes the IC50 value. Each plate contained a linear peptide ([…]) as the internal standard.[63]

[3] = system: recombinant K26GFP HSV-1 strain; test: Infection neutralization assay, transfected J cells, K26GFP HSV-1, EGFP expression; format: cell-based; settings: all of the examined J cell samples, 700 μM
From the text: To this aim, we selected the J cells, which are negative for gD receptors and therefore cannot be infected by HSV-1 unless gD cognate receptors (i.e., nectin1) are transgenically expressed. […] In particular, J cells were transfected with low amounts of nectin1 plasmid, plus either αvβ6 or αvβ8 integrin plasmid or both, and then infected with the recombinant K26GFP HSV-1 strain. Indeed, the capsid protein ICP26 of this strain is fused to the green fluorescent protein (GFP),[60] whose cellular expression can be used to measure the viral infection. Thus, the K26GFP entry in J cells after compound treatment was evaluated using fluorescent microscopy (Figure 4A–T), and the enhanced green fluorescent protein (EGFP) expression was quantified using flow cytometry as the mean fluorescence intensity (MFI) of gated cells (Figure 4U). […] In parallel, we also evaluated the HSV infection in J cells expressing nectin1 plus either αvβ6 or αvβ8 alone.
J cells were transfected with a low amount (75 ng of DNA/24 well) of nectin1 alone (A–E), or with the same amount of nectin1 plus αvβ6 integrin (300 ng DNA/24 well) (F–J), or plus αvβ8 integrin (300 ng DNA/24 well) (K–O), or plus both the integrin receptors (P–T). […] The cells were infected with K26GFP. The nonpenetrated virus was inactivated by an acid wash. Infectivity was measured at 16 h after infection as EGFP expression. (A)–(T) panels show the EGFP expression in each sample for a typical experiment. (U) K26GFP infection was quantified as EGFP protein expression in the flow cytometry assay as the mean fluorescence intensity (MFI) of gated cells. Histograms represent the average of triplicates ± SD.
In other experiments, J cells were transfected with low amounts of plasmids encoding nectin1 (75 ng of DNA/24 well), plus or minus plasmids encoding αv + β6 or αv + β8 integrins (300 ng of DNA/24 well) or together by means of Lipofect 2000 (Life Technologies). The total amount of transfected plasmid DNA was made equal (675 ng/24 well) by the addition of Erb-2 plasmid DNA. […] Following infection, the unpenetrated virus was inactivated by means of an acid wash (40 mM citric acid, 10 mM KCl, 135 mM NaCl, pH 3),[87] and the cells were incubated for a further 16 h in the absence of the peptides or antibody. The extent of infection was assessed through EGFP expression.
Cytofluorimetric analyses were performed using an AccuriC6 flow cytometer (Becton Dickinson). A least 10 000 events were acquired for each sample. Microphotography of the inhibition experiment was conducted using a Nikon Eclipse Ni microscope.

[4] = system: recombinant R8102 HSV-1 strain; test: Infection neutralization assay, 293T cells, R8102 HSV-1, β-galactosidase readout; format: cell-based; settings: increasing concentrations, 1 h prior to infection and 90 min during attachment
From the text: The binding of HSV-1 gH/gL to either αvβ6 or αvβ8 results in the dissociation of gL from the heterodimer, which, in turn, can favor HSV entry into cells.[27] […] R1.302, a nectin1-neutralizing mAb, was used as a positive control. In the first set of experiments, 293T cells, expressing both the αvβ6 and αvβ8 integrins, were alternatively exposed to increasing concentrations of the integrin-binding peptides and R1.302 before and during the infection by the recombinant R8102 HSV-1 strain. This virion carries, indeed, a lacZ reporter gene under the control of the α27 promoter, whose expression analysis allows for readily quantifying the infectivity.[59] […] Remarkably, these preliminary results were in agreement with the known interchangeable and additive roles played by αvβ6 and αvβ8 integrins upon HSV-1 infection.[26]
Figure 3 Inhibition of HSV-1 infection. 293T cells were exposed to increasing concentrations of the indicated peptides for 1 h prior to infection and during virus attachment for another 90 min. Infection was induced using the recombinant R8102 HSV-1 strain and measured after 8 h as β-galactosidase activity, using o-nitrophenyl-D-galactopyranoside (ONPG) as a substrate. The assays were run in triplicate. Bars show standard deviation (SD).
The experiments were performed using 293T cells in 96-well plates with extracellular virions of R8102 at an input multiplicity of infection of 5 PFU/cell. Cells were exposed to increasing concentrations of the peptides for 1 h at 37 °C, and the viral inoculum was added in the presence of peptides for 90 min at 37 °C. After the removal of the inoculum and rinsing with DMEM containing 1% FBS, the cells were incubated without peptides for 8 h. The same protocol was followed for R1.302 mAb that was used as a positive control. The infection was quantified as β-Gal activity using o-nitrophenyl-D-galactopyranoside (ONPG) as a substrate.[86]

Row | Compound | IC50 [1] [µM] | IC50 [2] [nM] | effect on HSV entry (in words) [3] | effect on HSV-1 infection (in words) [4]
1 | CN1C(=O)[C@H](CC(=O)O)NC(=O)CNC(=O)[C@H](CCCNC(=N)N)NC(=O)CC[C@@H](C(N)=O)NC(=O)[C@@H]1C1CCCCC1 [compound 5, [Arg-Gly-Asp-(NMe)Chg-Glu]-CONH2] | > 5 | > 5000 | – | –
2 | CC(C)[C@H]1C(=O)N[C@@H](CCCNC(=N)N)C(=O)NCC(=O)N[C@@H](CC(=O)O)C(=O)N[C@H](Cc2ccccc2)C(=O)N1C [cilengitide, reference compound] | – | – | no effect | no alteration in the HSV entry process
3 | CN1CC(=O)N[C@@H](CC(=O)O)C(=O)N[C@@H](C2CCCCC2)C(=O)N[C@H](C(N)=O)CCC(=O)N[C@@H](CCCNC(=N)N)C1=O [compound 3, [Arg-(NMe)Gly-Asp-Chg-Glu]-CONH2] | 3.32 ± 0.122 | 211 ± 26 | – | –
4 | CN1C(=O)CC[C@@H](C(N)=O)NC(=O)[C@H](C2CCCCC2)NC(=O)[C@H](CC(=O)O)NC(=O)CNC(=O)[C@@H]1CCCNC(=N)N [compound 2, [(NMe)Arg-Gly-Asp-Chg-Glu]-CONH2] | 2.25 ± 0.089 | 105 ± 8 | – | –
